Test results from patent US20230277534A1 (Plexxikon Inc., priority 2011, published 2023).

Legend:
B-Raf V600E = B-Raf V600E (Homo sapiens (Human), UniProt P15056, V600E); experiment: B-Raf V600E kinase biochemical activity assay (AlphaScreen, biotin-MEK1 substrate); details: 100 μM ATP
Experimental: Assays for biochemical and cell based activity are known in the art, for example, as described in PCT publication WO 2007/002433, the disclosure of which is hereby incorporated by reference as it relates to such assays. For example, the biochemical activity IC50 values are determined with respect to inhibition of B-Raf V600E kinase activity or p-Erk kinase activity, where inhibition of phosphorylation of a peptide substrate is measured as a function of compound concentration. Compounds to be tested are diluted in dimethyl sulfoxide to a concentration of 0.1 mM. These are serially diluted 15 μL into 30 μL of dimethyl sulfoxide seven times in 96 well plates for a total of 8 dilution points, and for each dilution point 1 μL is added to a well of an assay plate. Plates are prepared such that each well in a 384 well plate contains 1 μL of compound in 10 μL volume with 0.1 ng Raf enzyme (i.e. any of B-Raf, c-Raf-1 or B-Raf V600E, Upstate Biotechnology or prepared by methods known to one of skill in the art), 50 mM HEPES, pH 7.0, 50 mM NaCl, 2 mM MgCl2, 1 mM MnCl2, 0.01% Tween-20, 1 mM DTT, and 100 nM biotin-MEK1 as substrate. The reaction is started with addition of 10 μL of 200 μM ATP (i.e. final 100 μM ATP). After incubation of the kinase reaction for 45 minutes at room temperature, 5 μL/well of Stop Solution is added (25 mM Hepes pH 7.5, 100 mM EDTA, 0.01% BSA with donor beads (Streptavidin coated beads, Perkin Elmer), acceptor beads (Protein A coated, Perkin Elmer), and anti phosphor MEK1/2 antibody (CellSignal), each at final concentration 10 μg/mL). The plates are incubated for 3 hours at room temperature and read on Envision reader (Perkin Elmer). Phosphorylation of Mek1 results in binding of the anti-phosphor-MEK1/2antibody and association of the donor and acceptor beads such that signal correlates with kinase activity. The signal vs. compound concentration is used to determine the IC50.

[1] = test system: COLO205 colon adenocarcinoma cells (B-Raf V600E mutation); experiment: COLO205 cell growth inhibition (ATPlite); format: cell-based; details: Homo sapiens, COLO 205, 72 h, 3 days
Experimental: Compounds are assessed in a variety of cell based assays.
On day 1, cells are counted, then centrifuged in a conical tube for 5 minutes at 1000 rpm.
On day 2, compound at a maximum concentration of 5 mM is serially diluted 1:3 (e.g. 10 μL with 30 μL dimethyl sulfoxide) for a total of 8 point titration with DMSO as a control. A 1 μL aliquot of each dilution point and control is added to 249 μL growth media and 50 μL is added to a well containing cells, providing 10 μM compound at the maximum concentration point. The cells are incubated for 3 days at 37° C. in 5% CO2.
ATPlite is added 25 μL to each well, shake for 2 minutes, and the cells are incubated at room temperature for 10 minutes, then luminescence is read on Safire reader. The measured luminescence correlates directly with cell number, such that the reading as a function of compound concentration is used to determine the IC50 value.

Chain of B-Raf V600E (P15056 whole entry V600E): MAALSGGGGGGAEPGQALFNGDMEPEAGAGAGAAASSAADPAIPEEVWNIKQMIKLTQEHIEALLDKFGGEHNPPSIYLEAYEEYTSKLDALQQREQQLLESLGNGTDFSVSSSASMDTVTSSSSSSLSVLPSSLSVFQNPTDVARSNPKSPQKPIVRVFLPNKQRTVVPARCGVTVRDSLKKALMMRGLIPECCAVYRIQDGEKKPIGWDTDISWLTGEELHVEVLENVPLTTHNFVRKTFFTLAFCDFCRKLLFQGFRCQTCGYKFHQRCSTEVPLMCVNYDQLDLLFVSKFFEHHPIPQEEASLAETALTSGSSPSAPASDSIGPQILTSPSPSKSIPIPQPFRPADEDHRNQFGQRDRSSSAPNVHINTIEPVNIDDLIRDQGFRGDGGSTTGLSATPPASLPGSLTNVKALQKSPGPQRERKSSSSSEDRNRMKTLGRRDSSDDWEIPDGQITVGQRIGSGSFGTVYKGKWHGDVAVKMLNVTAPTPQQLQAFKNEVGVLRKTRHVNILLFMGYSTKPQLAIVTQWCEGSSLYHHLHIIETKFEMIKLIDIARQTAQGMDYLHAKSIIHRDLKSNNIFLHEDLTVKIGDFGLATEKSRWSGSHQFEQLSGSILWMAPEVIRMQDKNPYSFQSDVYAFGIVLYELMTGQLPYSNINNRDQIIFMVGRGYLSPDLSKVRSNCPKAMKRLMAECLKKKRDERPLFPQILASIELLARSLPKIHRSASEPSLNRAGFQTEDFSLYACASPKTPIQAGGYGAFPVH

Compound	IC50 (B-Raf V600E) [µM]	IC50 [1] [µM]
O=C(c1c(F)ccc(NS(=O)(=O)N2CC[C@H](F)C2)c1F)c1c[nH]c2ncc(-c3cnc(C4CC4)nc3)cc12 [Compound P-0289, (3S)—N-[3-[5-(2-cyclopropylpyrimidin-5-yl)-1H-pyrrolo[2,3-b]pyridine-3-carbonyl]-2,4-difluoro-phenyl]-3-fluoro-pyrrolidine-1-sulfonamide]	< 0.1	< 1
Cc1ccnc(-c2cnc3[nH]cc(C(=O)c4cccc(NS(=O)(=O)N5CCCC5)c4F)c3c2)n1 [Compound P-0326, N-[2-fluoro-3-[5-(4-methylpyrimidin-2-yl)-1H-pyrrolo[2,3-b]pyridine-3-carbonyl]phenyl]pyrrolidine-1-sulfonamide]	< 0.1	> 1
CCN(C)S(=O)(=O)Nc1cccc(C(=O)c2c[nH]c3ncc(C4CCC4)cc23)c1F [Compound P-0297, 5-cyclobutyl-3-[3-[[ethyl(methyl)sulfamoyl]amino]-2-fluoro-benzoyl]-1H-pyrrolo[2,3-b]pyridine]	< 0.1	> 1
CN(CC1CC1)S(=O)(=O)Nc1cccc(C(=O)c2c[nH]c3ncc(-c4cnc(C5CC5)nc4)cc23)c1F [Compound P-0084, 3-[3-[[cyclopropylmethyl(methyl)sulfamoyl]amino]-2-fluoro-benzoyl]-5-(2-cyclopropylpyrimidin-5-yl)-1H-pyrrolo[2,3-b]pyridine]	< 0.1	< 1
CCN(C)S(=O)(=O)Nc1ccc(F)c(C(=O)c2c[nH]c3ncc(-c4ccc(C(F)(F)F)cc4)cc23)c1F [Compound P-0301, 3-[3-[[ethyl(methyl)sulfamoyl]amino]-2,6-difluoro-benzoyl]-5-[4-(trifluoromethyl)phenyl]-1H-pyrrolo[2,3-b]pyridine]	< 0.1	> 1
O=C(c1cccc(NS(=O)(=O)N2CCCC2)c1F)c1c[nH]c2ncc(-c3cnc(N4CCCC4)nc3)cc12 [Compound P-0109, N-[2-fluoro-3-[5-(2-pyrrolidin-1-ylpyrimidin-5-yl)-1H-pyrrolo[2,3-b]pyridine-3-carbonyl]phenyl]pyrrolidine-1-sulfonamide]	< 0.1	< 1
CCN(C)S(=O)(=O)Nc1cccc(C(=O)c2c[nH]c3ncnc(N[C@@H](C)C4CC4)c23)c1F [Compound P-0089, 4-[[(1S)-1-cyclopropylethyl]amino]-5-[3-[[ethyl(methyl)sulfamoyl]amino]-2-fluoro-benzoyl]-7H-pyrrolo[2,3-d]pyrimidine]	< 0.1	> 1
CCCN(C)S(=O)(=O)Nc1cccc(C(=O)c2c[nH]c3ncc(-c4cnc(C)nc4)cc23)c1F [Compound P-0111, 3-[2-fluoro-3-[[methyl(propyl)sulfamoyl]amino]benzoyl]-5-(2-methylpyrimidin-5-yl)-1H-pyrrolo[2,3-b]pyridine]	< 0.1	< 1
Cc1ncc(-c2cnc3[nH]cc(C(=O)c4cccc(NS(=O)(=O)N(C)C)c4F)c3c2)cn1 [Compound P-0097, 3-[3-(dimethylsulfamoylamino)-2-fluoro-benzoyl]-5-(2-methylpyrimidin-5-yl)-1H-pyrrolo[2,3-b]pyridine]	< 0.1	< 1
O=C(c1c(F)ccc(NS(=O)(=O)N2CCCC2)c1F)c1c[nH]c2ncc(F)c(NCC3CC3)c12 [Compound P-0016, N-[3-[4-(cyclopropylmethylamino)-5-fluoro-1H-pyrrolo[2,3-b]pyridine-3-carbonyl]-2,4-difluoro-phenyl]pyrrolidine-1-sulfonamide]	< 0.1	< 1
NC(=O)C1(c2ccc(-c3cnc4[nH]cc(C(=O)c5cccc(NS(=O)(=O)N6CCCC6)c5F)c4c3)cc2)CC1 [Compound P-0253, 1-[4-[3-[2-fluoro-3-(pyrrolidin-1-ylsulfonylamino)benzoyl]-1H-pyrrolo[2,3-b]pyridin-5-yl]phenyl]cyclopropanecarboxamide]	< 0.1	> 1
N#Cc1ccc(-c2cnc3[nH]cc(C(=O)c4cccc(NS(=O)(=O)N5CCCC5)c4F)c3c2)cn1 [Compound P-0094, N-[3-[5-(6-cyano-3-pyridyl)-1H-pyrrolo[2,3-b]pyridine-3-carbonyl]-2-fluoro-phenyl]pyrrolidine-1-sulfonamide]	< 0.1	< 1
O=C(c1c(F)ccc(NS(=O)(=O)N2CCCC2)c1F)c1c[nH]c2ncc(-c3cnc(N4CCC(O)CC4)nc3)cc12 [Compound P-0262, N-[2,4-difluoro-3-[5-[2-(4-hydroxy-1-piperidyl)pyrimidin-5-yl]-1H-pyrrolo[2,3-b]pyridine-3-carbonyl]phenyl]pyrrolidine-1-sulfonamide]	< 0.1	< 1
CN1CCN(c2ncc(-c3cnc4[nH]cc(C(=O)c5c(F)ccc(NS(=O)(=O)N6CCCC6)c5F)c4c3)cn2)CC1 [Compound P-0260, N-[2,4-difluoro-3-[5-[2-(4-methylpiperazin-1-yl)pyrimidin-5-yl]-1H-pyrrolo[2,3-b]pyridine-3-carbonyl]phenyl]pyrrolidine-1-sulfonamide]	< 0.1	< 1

Continued, values first:

IC50 (B-Raf V600E) [µM]	IC50 [1] [µM]	Compound
< 0.1	< 1	CN1CCN(c2cc(-c3cnc4[nH]cc(C(=O)c5c(F)ccc(NS(=O)(=O)N6CCCC6)c5F)c4c3)ccn2)CC1 [Compound P-0285, N-[2,4-difluoro-3-[5-[2-(4-methylpiperazin-1-yl)-4-pyridyl]-1H-pyrrolo[2,3-b]pyridine-3-carbonyl]phenyl]pyrrolidine-1-sulfonamide]
< 0.1	< 1	CCC(C)S(=O)(=O)Nc1cccc(C(=O)c2c[nH]c3ncc(-c4cnc(C)nc4)cc23)c1F (stereo not shown) [Compound P-0231, N-[2-fluoro-3-[5-(2-methylpyrimidin-5-yl)-1H-pyrrolo[2,3-b]pyridine-3-carbonyl]phenyl]butane-2-sulfonamide]
< 0.1	> 1	CCCNS(=O)(=O)Nc1cccc(C(=O)c2c[nH]c3ncc(-c4cnc(C5CC5)nc4)cc23)c1F [Compound P-0251, [5-(2-cyclopropylpyrimidin-5-yl)-1H-pyrrolo[2,3-b]pyridin-3-yl]-[2-fluoro-3-(propylsulfamoylamino)phenyl]methanone]
< 0.1	> 1	CCN(C)S(=O)(=O)Nc1cccc(C(=O)c2c[nH]c3ncc(C4CC4)cc23)c1F [Compound P-0298, 5-cyclopropyl-3-[3-[[ethyl(methyl)sulfamoyl]amino]-2-fluoro-benzoyl]-1H-pyrrolo[2,3-b]pyridine]
< 0.1	< 1	CCN(C)S(=O)(=O)Nc1ccc(F)c(C(=O)c2c[nH]c3ncc(-c4ccc5c(c4)NC(=O)C5)cc23)c1F [Compound P-0309, 3-[3-[[ethyl(methyl)sulfamoyl]amino]-2,6-difluoro-benzoyl]-5-(2-oxoindolin-6-yl)-1H-pyrrolo[2,3-b]pyridine]
< 0.1	< 1	CCOc1ncc(-c2cnc3[nH]cc(C(=O)c4c(F)ccc(NS(=O)(=O)N(C)CC)c4F)c3c2)cn1 [Compound P-0256, 5-(2-ethoxypyrimidin-5-yl)-3-[3-[[ethyl(methyl)sulfamoyl]amino]-2,6-difluoro-benzoyl]-1H-pyrrolo[2,3-b]pyridine]
